In PubChem BioAssay AID256 (DTP/NCI, 2004):
Inconclusive results and toxic doses are left out.

Tested on: CD2F1 mice, L1210 leukemia ip, survival T/C
Assay: NCI In Vivo Anticancer Drug Screen. Data for tumor model L1210 Leukemia (intraperitoneal) in CD2F1 (CDF1) mice
Conditions: higher = longer survival
Procedure, shortened: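 Activity against a transplanted murine tumor was judged by comparing the compound group with a vehicle group. The outcome in the treated animals was divided by that in the controls.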

[1] = endpoint: mean survival time, dose: 100.0 mg/kg/injection, schedule: Q01DX009 (ip), vehicle: saline with Tween-80
[2] = endpoint: mean survival time, dose: 200.0 mg/kg/injection, schedule: Q01DX009 (ip), vehicle: saline with Tween-80
[3] = endpoint: mean survival time, dose: 37.5 mg/kg/injection, schedule: Q01DX009 (ip), vehicle: saline
[4] = endpoint: mean survival time, dose: 75.0 mg/kg/injection, schedule: Q01DX009 (ip), vehicle: saline
[5] = endpoint: mean survival time, dose: 400.0 mg/kg/injection, schedule: Q01DX001 (ip), vehicle: saline
[6] = endpoint: mean survival time, dose: 200.0 mg/kg/injection, schedule: Q04DX003 (ip), vehicle: saline with Tween-80
[7] = endpoint: mean survival time, dose: 400.0 mg/kg/injection, schedule: Q04DX003 (ip), vehicle: saline with Tween-80
[8] = endpoint: mean survival time, dose: 400.0 mg/kg/injection, schedule: Q01DX009 (ip), vehicle: saline with Tween-80

Cc1ccc2nc(-c3ccc(Cl)cc3Cl)oc(=O)c2c1
T/C (endpoint: mean survival time, dose: 100.0 mg/kg/injection, schedule: Q04DX002 (ip), vehicle: saline with Tween-80): 100 % of control
T/C (endpoint: mean survival time, dose: 200.0 mg/kg/injection, schedule: Q04DX002 (ip), vehicle: saline with Tween-80): 114 % of control
T/C (endpoint: mean survival time, dose: 400.0 mg/kg/injection, schedule: Q04DX002 (ip), vehicle: saline with Tween-80): 107 % of control

C=CCNC(=O)OCC
T/C [1]: 100 % of control
T/C [2]: 98 % of control

CCC(C)C(C(=O)OCCN(C)C)c1ccccc1 (configuration not stated)
T/C (endpoint: mean survival time, dose: 50.0 mg/kg/injection, schedule: Q01DX009 (ip), vehicle: saline with Tween-80): 100 % of control
T/C [1]: 97 % of control
T/C [2]: 103 % of control

NCCCNC/C=C/CNCCCN
T/C [3]: 98 % of control
T/C [4]: 101 % of control
T/C (endpoint: mean survival time, dose: 150.0 mg/kg/injection, schedule: Q01DX009 (ip), vehicle: saline): 101 % of control

Nc1nc(=S)c2ncn(C3OC(CO)C(O)C3O)c2[nH]1 (configuration not stated)
T/C (endpoint: mean survival time, dose: 1.0 mg/kg/injection, schedule: Q01DX005 (ip), vehicle: saline + alcohol): 154 % of control
T/C (endpoint: mean survival time, dose: 2.0 mg/kg/injection, schedule: Q01DX005 (ip), vehicle: saline + alcohol): 152 % of control
T/C (endpoint: mean survival time, dose: 4.0 mg/kg/injection, schedule: Q01DX005 (ip), vehicle: saline + alcohol): 150 % of control
T/C (endpoint: mean survival time, dose: 10.0 mg/kg/injection, schedule: Q03DX003 (ip), vehicle: saline): 151 % of control
T/C (endpoint: mean survival time, dose: 10.0 mg/kg/injection, schedule: Q04DX003 (ip), vehicle: saline): 163 % of control
T/C (endpoint: mean survival time, dose: 20.0 mg/kg/injection, schedule: Q01DX007 (ip), vehicle: saline): 107 % of control
T/C (endpoint: mean survival time, dose: 20.0 mg/kg/injection, schedule: Q03DX003 (ip), vehicle: saline): 151 % of control
T/C (endpoint: mean survival time, dose: 20.0 mg/kg/injection, schedule: Q04DX003 (ip), vehicle: saline): 150 % of control
T/C [3]: 113 % of control
T/C (endpoint: mean survival time, dose: 40.0 mg/kg/injection, schedule: Q01DX009 (ip), vehicle: saline): 95 % of control
T/C (endpoint: mean survival time, dose: 40.0 mg/kg/injection, schedule: Q04DX003 (ip), vehicle: saline): 164 % of control
T/C [4]: 89 % of control
T/C (endpoint: mean survival time, dose: 178.0 mg/kg/injection, schedule: Q01DX001 (ip), vehicle: saline): 152 % of control
T/C (endpoint: mean survival time, dose: 267.0 mg/kg/injection, schedule: Q01DX001 (ip), vehicle: saline): 152 % of control
T/C [5]: 159 % of control

CCC(=O)Nc1ccccc1OS(=O)(=O)N(C)C
T/C [6]: 97 % of control
T/C [7]: 98 % of control

NC(CCNCCc1ccccc1)CNCCc1ccccc1 (configuration not stated)
T/C (endpoint: mean survival time, dose: 75.0 mg/kg/injection, schedule: Q01DX001 (ip), vehicle: saline): 107 % of control
T/C (endpoint: mean survival time, dose: 150.0 mg/kg/injection, schedule: Q01DX001 (ip), vehicle: saline): 92 % of control

CCCC[N+](CCCC)(CCCC)CCCC.[O-][PH+](O)O[PH+]([O-])O.[O-][PH+](O)O[PH+]([O-])O.[O-][PH+](O)O[PH+]([O-])O.[O-][PH+](O)O[PH+]([O-])O.[Pt+2].[Pt+2]
T/C (endpoint: median survival time, dose: 10.0 mg/kg/injection, schedule: Q04DX003 (ip), vehicle: water): 100 % of control
T/C (endpoint: median survival time, dose: 40.0 mg/kg/injection, schedule: Q04DX003 (ip), vehicle: water): 105 % of control

CCCCCCOS(=O)OC(C)C(Cl)C(=O)OCC (configuration not stated)
T/C [1]: 97 % of control
T/C [2]: 97 % of control
T/C [8]: 100 % of control

O=c1c2ccccc2ncn1CCc1ccncc1
T/C (endpoint: mean survival time, dose: 100.0 mg/kg/injection, schedule: Q01DX001 (ip), vehicle: saline): 104 % of control
T/C (endpoint: mean survival time, dose: 200.0 mg/kg/injection, schedule: Q01DX001 (ip), vehicle: saline): 101 % of control
T/C [5]: 103 % of control

CCCCCCCCN(C#N)CCCCCCCC
T/C [1]: 100 % of control
T/C [2]: 95 % of control
T/C [8]: 97 % of control

O=C1CCCCC1(c1ccccc1)c1ccccc1
T/C [1]: 101 % of control
T/C (endpoint: mean survival time, dose: 100.0 mg/kg/injection, schedule: Q04DX003 (ip), vehicle: saline with Tween-80): 101 % of control
T/C [2]: 97 % of control
T/C [6]: 99 % of control
T/C [8]: 98 % of control
T/C [7]: 97 % of control
